# Results from patent publication US6399654B1, “Biflavanoids and derivatives thereof as antiviral agents” (priority 1995, dated 2002).
# Where a name gives a salt, the structure may show the parent alone. Read-outs that look alike come from different tables or passages of the source.
# Key:
# [1] = tested on: Adenovirus Type 5; assay: microbe, parasite or virus in culture; assay type: cell-based
# [2] = tested on: Adenovirus Type 5; assay: Adenovirus type 5 neutral red dye uptake in A549 cells; assay type: cell-based; conditions: Adenovirus Type 5
# [3] = tested on: Human lung carcinoma (A549) cells; conditions: Adenovirus Type 5 test
# [4] = tested on: Human lung carcinoma (A549) cells
# [5] = molecular target: T1, HIV-1 RT (Human immunodeficiency virus type 1 group M subtype B, UniProt P03366); assay: Anti-HIV-1 RT assay (recombinant enzyme); assay type: biochemical; conditions: for Anti-HIV-1 RT IC50: values in parentheses or in words
# T1 construct: made in house; host or cells: Escherichia coli
# [6] = tested on: HIV-1 (strain LAV-1); assay: microbe, parasite or virus in culture; assay type: cell-based; conditions: for Selective Index (SI): PBM cells
# [7] = Cytotoxicity in uninfected PHA-stimulated human PBM cells; conditions: human
# [8] = tested on: Influenza A (H1N1) Texas/36/91; assay: microbe, parasite or virus in culture; assay type: cell-based, influenza A virus; conditions: Influenza A (H1N1) Texas/36/91
# [9] = tested on: Influenza A (H1N1) Texas/36/91; assay: microbe, parasite or virus in culture; assay type: cell-based, influenza A virus; conditions: Influenza A (H1N1) Texas/36/91; remark: listed apart in the source
# [10] = tested on: Influenza A (H3N2) Beijing/32/92; assay: microbe, parasite or virus in culture; assay type: cell-based, influenza A virus; conditions: Influenza A (H3N2) Beijing/32/92
# [11] = tested on: Influenza A (H3N2) Beijing/32/92; assay: microbe, parasite or virus in culture; assay type: cell-based, influenza A virus; conditions: Influenza A (H3N2) Beijing/32/92; remark: listed apart in the source
# [12] = tested on: Influenza B Panama/45/90; assay: microbe, parasite or virus in culture; assay type: cell-based; conditions: Influenza B Panama/45/90
# [13] = tested on: Measles Virus; assay: microbe, parasite or virus in culture; assay type: cell-based; conditions: Measles Virus
# [14] = tested on: Measles Virus; assay: Measles virus neutral red dye uptake in BSC-1 cells; assay type: cell-based
# [15] = tested on: Parainfluenza Type 3 Virus; assay: organism not typed; assay type: cell-based; conditions: Parainfluenza Type 3 Virus
# [16] = tested on: Parainfluenza Type 3 Virus; assay: organism not typed; assay type: cell-based
# [17] = tested on: Respiratory Syncytial Virus; assay: microbe, parasite or virus in culture; assay type: cell-based; conditions: Respiratory Syncytial Virus
# [18] = tested on: Respiratory Syncytial Virus; assay: microbe, parasite or virus in culture; assay type: cell-based; conditions: Respiratory Syncytial Virus; remark: listed apart in the source
# [19] = tested on: Madin Darby canine kidney (MDCK) cells; conditions: for CPE Inhibition IC50 (50% cell inhibitory (cytotoxic) concentration): Influenza A (H1N1) test
# [20] = tested on: Madin Darby canine kidney (MDCK) cells
# [21] = tested on: African green monkey kidney (BSC-1) cells; conditions: Measles Virus test
# [22] = tested on: African green monkey kidney (BSC-1) cells
# [23] = tested on: African green monkey kidney (MA-104) cells; conditions: for CPI Inhibition IC50 (cytotoxic): Parainfluenza Type 3 Virus test; for CPE Inhibition IC50 (cytotoxic): Respiratory Syncytial Virus test
# [24] = tested on: HFF Cells
# [25] = tested on: HCMV; assay: HCMV CPE inhibition in HFF cells; conditions: HFF Cells
# [26] = tested on: HSV-1; assay: HSV-1 CPE inhibition in HFF cells; conditions: HFF Cells
# [27] = tested on: HSV-2; assay: HSV-2 CPE inhibition in HFF cells; conditions: HFF Cells
# [28] = tested on: VZV; assay: VZV plaque reduction assay in HFF cells; conditions: for VZV Plaque Reduction EC50 / VZV SI (CC50/EC50): HFF Cells
# [29] = tested on: Hepatitis B Virus (HBV); assay: Inhibition of HBV replication in 2.2.15 cells, extracellular (virion) HBV DNA; conditions: for anti-HBV activity (in words) / EC50 / EC90: 2.2.15 cells; for SI (CC50/EC90), HBV Virion: selective index; for EC50: read-out: EC50 (50% effective dose), HBV Virion; for EC50 / EC90: extracellular (virion) HBV DNA, 9 days treatment; for EC90: read-out: EC90 (90% effective dose), HBV Virion;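 for all read-outs here: extracellular virion HBV DNA in culture medium measured by slot blot hybridization with a 32P-labeled HBV probe, quantified against HBV DNA standards, after 9 days of daily dosing, compared with day 0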
# Protocol: Test compounds were added daily for a nine continuous day period; the culture medium was collected and stored for analysis of extracellular (virion) HBV DNA after 0, 3, 6, and 9 days of treatment. The treated cells were lysed 24 hours following day 9 of treatment for the analysis of intracellular HBV genomic forms. The overall levels of HBV DNA (both extracellular and intracellular DNA) and the relative rate of HBV replication (intracellular DNA) were analyzed quantitatively. The analysis was performed using blot hybridization techniques and [^32P]-labeled HBV-specific probes. The HBV DNA levels were measured by comparison to known amounts of HBV DNA standards applied to every nitrocellulose membrane (gel or slot blot). An AMBIS beta scanner, which measures the radioactive decay of the hybridized probes directly from the nitrocellulose membranes, was used for the quantitative analysis. Standard curves, generated by multiple analyses, were used to correlate CPM measurements made by the beta scanner with relative levels of target HBV DNA. The levels of HBV virion DNA released into the culture medium were analyzed by a slot blot hybridization procedure. HBV DNA levels were then compared to those at day 0 to determine the effect of the test compound. A known positive drug was evaluated in parallel with test compounds in each test.
# Determination of therapeutic concentrations (EC50 and EC90) and toxicity concentrations (IC50) were determined as previously described (90). Stock solutions of text drugs were prepared in DMSO. Culture medium was changed daily and analyzed for extracellular HBV DNA after nine days of continuous drug exposure. Extracellular HBV DNA was extracted from the culture media and analyzed by a slot blot hydridization technique, using a ^32P-labeled Eco RI HBV DNA fragment, as previously described (91), and quantitated via comparison to HBV standards on a nitrocellulose filter, using an AMBIS beta scanner. Toxicity was determined by measuring inhibition of neutral red dye uptake. […] Effective concentration values for individual agents are the mean of six cultures per concentration point. Toxicity values are the mean of three cultures per concentration point.
# [30] = tested on: adenovirus type 1; assay: Activity against adenovirus type 1; assay type: cell-based; conditions: Human mastadenovirus C
# [31] = tested on: Influenza B Panama/45/90; assay: microbe, parasite or virus in culture; assay type: cell-based
compound,measurement,setting,value
"Nc1ncnc2c1ncn2C[C@@H](CO)OCP(=O)(O)O [HPMPA, (S)-1-(3-hydroxy-2-phosophonylmethoxypropyl)adenine, reference compound]",CPE Inhibition EC50,[1],30 µg/mL
same,Neutral Red EC50,[2],8 µg/mL
same,CPE Inhibition IC50 (cytotoxic),[3],80 µg/mL
same,Neutral Red IC50 (cytotoxic),[4],40 µg/mL
"O=C1c2c(O)cc(O)cc2O[C@H](c2ccc(O)cc2)[C@H]1c1c(O)cc(O)c2c(=O)cc(-c3ccc(O)c(O)c3)oc12 [Morelloflavone(7), morelloflavone]",IC50,"[5]; Anti-HIV-1 RT IC50, values in parentheses or in words",116 µM
same,IC50,[5]; HIV-1 RT IC50 (50% inhibition dose),116 µM
same,inhibition at 200 µg/mL,[5]; read-out: Anti-HIV-1 RT % Inhibition at 200 μg/ml,99.2%
same,anti-HIV-1 activity in PBM cells (in words),[6],potent inhibitory activity
same,EC50,"[6]; Human immunodeficiency virus 1, PBMC, human PBM cells infected with HIV-1 (strain LAV), read-out: Ant-HIV-1 in PBM cells EC50",5.7 µM
same,EC50,"[6]; Human immunodeficiency virus 1, PBMC, read-out: EC50 (50% effective dose) in PBM cells infected with HIV-1, whole cell assay",5.7 µg/mL
same,Selective Index (SI),[6],12
same,Selective Index (SI),[6]; listed as Morelloflavone,approximately 10
same,EC50,"[6]; human PBM cells infected with HIV-1 (strain LAV), read-out: Ant-HIV-1 in PBM cells EC50",8 µM
same,EC50 (50% effective dose) in PBM cells infected with HIV-1,[6]; whole cell assay,8.0 µg/mL
same,IC50,[7],82 µM
"CC(=O)Oc1ccc([C@@H]2CC(=O)c3c(cc(OC(C)=O)c(-c4c(OC(C)=O)cc(OC(C)=O)c5c4O[C@H](c4ccc(OC(C)=O)cc4)CC5=O)c3OC(C)=O)O2)cc1 [Rhusflavanone hexaacetate (10), rhusflavanone hexaacetate]",CPE Inhibition EC50,[8],>10 µg/mL
same,Neutral Red EC50,[9],5.6 µg/mL
same,CPE Inhibition EC50,[10],>10 µg/mL
same,Neutral Red EC50,[11],5.4 µg/mL
same,CPE Inhibition EC50,[12],>10 µg/mL
same,CPI Inhibition EC50,[13],˜3 ug/ml
same,Neutral Red EC50,[14],<10 µg/mL
same,CPE Inhibition EC50,[1],>10 µg/mL
same,Neutral Red EC50,[2],19 µg/mL
same,CPI Inhibition EC50,[15],>10 µg/mL
same,Neutral Red EC50,[16],32 µg/mL
same,CPE Inhibition EC50,[17],>10 µg/mL
same,Neutral Red EC50,[18],19 µg/mL
same,Anti-HIV-1 RT % Inhibition at 200 μg/ml,[5],0.00%
same,Anti-HIV-1 RT IC50,[5],Inactive
same,CPE Inhibition IC50 (50% cell inhibitory (cytotoxic) concentration),[19],7.2 µg/mL
same,CPE Inhibition IC50 (cytotoxic),[19]; Influenza A (H3N2) test,5.6 µg/mL
same,CPE Inhibition IC50 (cytotoxic),[19]; Influenza B test,4.2 µg/mL
same,Neutral Red IC50 (cytotoxic),[20]; Influenza A (H1N1) test,5.7 µg/mL
same,Neutral Red IC50 (cytotoxic),[20]; Influenza A (H3N2) test,5.3 µg/mL
same,CPI Inhibition IC50 (cytotoxic),[21],<4 µg/mL
same,Neutral Red IC50 (cytotoxic),[22],<11 µg/mL
same,CPE Inhibition IC50 (cytotoxic),[3],22 µg/mL
same,Neutral Red IC50 (cytotoxic),[4],26 µg/mL
same,CPI Inhibition IC50 (cytotoxic),[23],22 µg/mL
same,CPE Inhibition IC50 (cytotoxic),[23],13 µg/mL
same,HCMV CPE Inhibition CC50,[24],13.4 µg/mL
same,HSV-1 CPE Inhibition CC50,[24],18.5 µg/mL
same,HSV-2 CPE Inhibition CC50,[24],18.5 µg/mL
same,VZV Plaque Reduction CC50,[24],46.7 µg/mL
same,HCMV CPE Inhibition EC50,[25],>4.0 µg/mL
same,HCMV SI (CC50/EC50),[25],<3.3
same,HSV-1 CPE Inhibition EC50,[26],>4.0 µg/mL
same,HSV-1 SI (CC50/EC50),[26],<4.6
same,HSV-2 CPE Inhibition EC50,[27],>4.0 µg/mL
same,HSV-2 SI (CC50/EC50),[27],<4.6
same,VZV Plaque Reduction EC50,[28],11.3 µg/mL
same,VZV SI (CC50/EC50),[28],4.1
same,anti-HBV activity (in words),[29],moderate anti-HBV activity
same,"SI (CC50/EC90), HBV Virion",[29],2.8
"O=c1cc(-c2ccc(O)c(-c3c(O)cc4oc(-c5ccc(O)cc5)cc(=O)c4c3O)c2)oc2cc(O)cc(O)c12 [Robustaflavone sodium salt, Robustaflavone tetrasodium salt]",EC50,[30],32 µM
same,IC50,"[30]; 50% cell inhibitory (cytotoxic) concentration, read-out: IC50 in the adenovirus type 1 test",> 160 µM
same,fold less active/potent than robustaflavone against HBV,[29]; in vitro assay against HBV,approximately 10 fold
same,EC50,[29],3.1 µM
same,EC90,[29],12 µM
same,"SI (CC50/EC90), HBV Virion",[29],88
"CC(=O)Oc1ccc([C@@H]2CC(=O)c3c(cc(OC(C)=O)c(-c4c(OC(C)=O)cc5c(c4OC(C)=O)C(=O)C[C@@H](c4ccc(OC(C)=O)cc4)O5)c3OC(C)=O)O2)cc1 [Succedaneaflavanone hexaacetate (12), succedaneaflavanone hexaacetate]",CPE Inhibition EC50,[8],5.6 µg/mL
same,Neutral Red EC50,[9],7.4 µg/mL
same,CPE Inhibition EC50,[10],8.8 µg/mL
same,Neutral Red EC50,[11],5.6 µg/mL
same,CPE Inhibition EC50,[12],5.4 µg/mL
same,Neutral Red EC50,[31],5.9 µg/mL
same,CPI Inhibition EC50,[13],˜3.2 ug/ml
same,Neutral Red EC50,[14],<2 µg/mL
same,CPE Inhibition EC50,[1],20 µg/mL
same,Neutral Red EC50,[2],6 µg/mL
same,CPI Inhibition EC50,[15],>10 µg/mL
same,Neutral Red EC50,[16],>32 µg/mL
same,CPE Inhibition EC50,[17],>3 µg/mL
same,Neutral Red EC50,[18],6 µg/mL
same,Anti-HIV-1 RT % Inhibition at 200 μg/ml,[5],0.00%
same,Anti-HIV-1 RT IC50,[5],Inactive
same,CPE Inhibition IC50 (50% cell inhibitory (cytotoxic) concentration),[19],8.2 µg/mL
same,CPE Inhibition IC50 (cytotoxic),[19]; Influenza A (H3N2) test,12 µg/mL
same,CPE Inhibition IC50 (cytotoxic),[19]; Influenza B test,12 µg/mL
same,Neutral Red IC50 (cytotoxic),[20]; Influenza A (H1N1) test,7.4 µg/mL
same,Neutral Red IC50 (cytotoxic),[20]; Influenza A (H3N2) test,5.6 µg/mL
same,Neutral Red IC50 (cytotoxic),[20]; Influenza B test,5.9 µg/mL
same,CPI Inhibition IC50 (cytotoxic),[21],<4 µg/mL
same,Neutral Red IC50 (cytotoxic),[22],<200 µg/mL
same,CPE Inhibition IC50 (cytotoxic),[3],19 µg/mL
same,Neutral Red IC50 (cytotoxic),[4],6 µg/mL
same,CPI Inhibition IC50 (cytotoxic),[23],˜14 ug/ml
same,CPE Inhibition IC50 (cytotoxic),[23],4 µg/mL
same,HCMV CPE Inhibition CC50,[24],14.4 µg/mL
same,HSV-1 CPE Inhibition CC50,[24],17.7 µg/mL
same,HSV-2 CPE Inhibition CC50,[24],17.7 µg/mL
same,VZV Plaque Reduction CC50,[24],68.0 µg/mL
same,HCMV CPE Inhibition EC50,[25],>4.0 µg/mL
same,HCMV SI (CC50/EC50),[25],<3.5
same,HSV-1 CPE Inhibition EC50,[26],>4 µg/mL
same,HSV-1 SI (CC50/EC50),[26],<4.4
same,HSV-2 CPE Inhibition EC50,[27],>4.0 µg/mL
same,HSV-2 SI (CC50/EC50),[27],<4.4
same,activity against VZV (in words),[28],moderately active
same,VZV Plaque Reduction EC50,[28],7.1 µg/mL
same,VZV SI (CC50/EC50),[28],9.6
same,anti-HBV activity (in words),[29],moderate anti-HBV activity
same,EC50,[29],3.5 µM
same,EC90,[29],128 µM
same,"SI (CC50/EC90), HBV Virion",[29],1.9
